Experimental data as given in US20170240539A1, “Preparation and Use of Cyclic Sulfonamide Derivatives as PAR-1 Receptor Antagonists” (MERCK SHARP & DOHME CORP., priority 2014, published 2017).

Biological target: T1, PAR-1 receptor (Homo sapiens, UniProt P25116)
T1 construct: endogenous in cells; host or cells: HEK 293
T1 sequence (P25116 22-425): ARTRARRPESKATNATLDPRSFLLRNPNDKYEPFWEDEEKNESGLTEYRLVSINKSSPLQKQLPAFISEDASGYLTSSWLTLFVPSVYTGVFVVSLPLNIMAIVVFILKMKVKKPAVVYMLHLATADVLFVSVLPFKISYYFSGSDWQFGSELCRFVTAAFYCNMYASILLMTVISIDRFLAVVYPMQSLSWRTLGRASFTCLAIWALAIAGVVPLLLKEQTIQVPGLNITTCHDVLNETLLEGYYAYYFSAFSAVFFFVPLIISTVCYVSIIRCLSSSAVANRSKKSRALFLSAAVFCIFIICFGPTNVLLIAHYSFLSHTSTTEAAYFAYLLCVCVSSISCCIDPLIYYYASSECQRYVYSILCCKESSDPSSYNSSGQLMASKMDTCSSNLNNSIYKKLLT
Assay: PAR-1 FLIPR Assay
Type: cell-based
Settings: HEK 293 cells, FLIPR calcium-5 dye; inhibition of signal from PAR1 selective receptor-activating peptide at 80% activation concentration (1.4-2.0 uM); compound incubated 30 minutes at 25 degrees
Experimental: The following assay was used to determine the ability of the inventive compounds to inhibit the PAR-1 receptor.
HEK 293 Cells are grown in media containing DMEM, 10% FBS pen/strep/L-Glutamine and non-essential amino acids. The cells are plated in 384-well PDL coated plates at 12000 cells/well and incubated overnight at 37° C./5% CO2. Media is then removed from the cells, which are then incubated with buffer (Hank's containing HEPES and Chaps) containing FLIPR calcium-5 dye, made with buffer containing probenecid, for 60 minutes at 37° C. Varying concentrations of compound in a final concentration of 5% DMSO are then added to the cells and incubated at 25 degrees for 30 minutes. The plates are then added to a FLIPR Tetra cellular screening system and the device adds a concentration of a PAR1 selective receptor-activating peptide with the sequence Ala-parafluoroPhe-Arg-Cha-Cit-Tyr-NH2 (SEQ ID NO: 3) (prepared in water) at a concentration equal to the effective concentration that achieves 80% activation of signaling on the day of the experiment. The range is from 1.4-2.0 uM peptide. The FLIPR reads at an excitation wavelength of 480 nm and an emission wavelength of 535 nm, and performs 60 scans over a 1-2 min reading time. The data are analyzed by taking the peak signal over a portion of the range of the 60 scans and dividing this signal by the minimum signal for that same range. The data are expressed as percent inhibition of the maximum divided by the minimum signal achieved at 80% activation produced by the PAR1 activating peptide on the test day.

SMILES	IC50 [nM]
C[C@H]1NS(=O)(=O)[C@]2(CC(N)=O)CC(F)(F)[C@@H](C)[C@H](/C=C/c3ccc(-c4cccnc4C#N)cn3)[C@H]12 [Example 24, 2-((3R,3aR,4S,5S,7aR)-6,6-difluoro-4-((E)-2-(2′-cyano-[3,3′-bipyridin]-6-yl)vinyl)-3,5-dimethyl-1,1-dioxidooctahydrobenzo[d]isothiazol-7a-yl)acetamide]	89
CC[C@@H]1CC[C@@H]2[C@H]([C@H]1/C=C/c1ccc(-c3ccccc3C#N)cn1)[C@@H](C)N(C)S2(=O)=O [Example 27, 2-(6-((E)-2-((3R,3aR,4R,5R,7aR)-5-ethyl-2,3-dimethyl-1,1-dioxidooctahydrobenzo[d]isothiazol-4-yl)vinyl)pyridin-3-yl)benzonitrile]	13
CCOC(=O)N1[C@H](C)[C@H]2[C@@H](/C=C/c3ccc(-c4ccccc4C#N)cn3)[C@H](CC)CC[C@H]2S1(=O)=O [Example 28, (3R,3aR,4R,5R,7aR)-ethyl 4-((E)-2-(5-(2-cyanophenyl)pyridin-2-yl)vinyl)-5-ethyl-3-methylhexahydrobenzo[d]isothiazole-2(3H)-carboxylate 1,1-dioxide]	325
CC[C@@H]1CC[C@@H]2[C@H]([C@H]1/C=C/c1ccc(-c3ccccc3C#N)cn1)[C@@H](C)N(CCO)S2(=O)=O [Example 29, 2-(6-((E)-2-((3R,3aR,4R,5R,7aR)-5-ethyl-2-(2-hydroxyethyl)-3-methyl-1,1-dioxidooctahydrobenzo[d]isothiazol-4-yl)vinyl)pyridin-3-yl)benzonitrile]	540

More lines, now with the values ahead:

IC50 [nM]	SMILES
3	C[C@H]1NS(=O)(=O)[C@]2(CC(N)=O)CC(F)(F)[C@@H](C)[C@H](/C=C/c3ccc(-c4ccccc4C#N)cn3)[C@H]12 [Example 23, 2-((3R,3aR,4S,5S,7aR)-4-((E)-2-(5-(2-cyanophenyl)pyridin-2-yl)vinyl)-6,6-difluoro-3,5-dimethyl-1,1-dioxidooctahydrobenzo[d]isothiazol-7a-yl)acetamide]
12	C[C@H]1NS(=O)(=O)[C@]2(CC(=O)O)CC(F)(F)[C@@H](C)[C@H](/C=C/c3ccc(-c4ccccc4C#N)cn3)[C@H]12 [Example 25, 2-((3R,3aR,4S,5S,7aR)-4-((E)-2-(5-(2-cyanophenyl)pyridin-2-yl)vinyl)-6,6-difluoro-3,5-dimethyl-1,1-dioxidooctahydrobenzo[d]isothiazol-7a-yl)acetic acid]
54	CCOC(=O)C[C@@]12CC(F)(F)[C@@H](C)[C@H](/C=C/c3ccc(-c4ccccc4C#N)cn3)[C@@H]1[C@@H](C)N(C(=O)OC(C)(C)C)S2(=O)=O [Example 26]
